Values quoted from earlier work, collected in patent publication US20170128482A1, “MODIFIED RELEASE PHARMACEUTICAL COMPOSITIONS OF […] RIBAVIRIN” (SANOVEL ILAC SANAYI VE TICARET A.S., priority 2014, published 2017).

Tests used:
[1] = test system: chronic hepatitis C (CHC) infections / HCV; conditions: ribavirin alone
[2] = test system: Cytochrome P450 (CYP450)

| Compound | sustained virologic response [1] | HCV RNA levels ([1]; during or after therapy) | alanine aminotransferase (ALT) levels ([1]; during the course of treatment, some patients with CHC) | metabolism by Cytochrome P450 (CYP450) [2] |
| --- | --- | --- | --- | --- |
| 1-β-Dribofuranosyl-1H-1,2,4-triazole-3-carboxamide [Ribavirin] | did not produce any sustained virologic response | did not reduce | transiently | – |
| CC(C)OC(=O)[C@H](C)N[P@](=O)(OC[C@H]1O[C@@H](n2ccc(=O)[nH]c2=O)[C@](C)(F)[C@@H]1O)Oc1ccccc1 [Sofosbuvir, (S)-Isopropyl 2-((S)-(((2R,3R,4R,5R)-5-(2,4-dioxo3,4-dihydropyrimidin-1(2H)-yl)-4-fluoro-3-hydroxy-4-methyltetrahydrofuran-2yl)methoxy)-(phenoxy)phosphorylamino)propanoate] | – | – | – | not metabolized |
